target: T1, ERAP1 (Homo sapiens, UniProt Q9NZ08); experiment: ERAP1 mediated hydrolysis of an amide substrate (10-mer inhibition assay), biochemical system; settings: 10-mer substrate, incubated at 23° C. for 1 h, excitation 279 nm and emission 355 nm; read-out: IC50 vs Decapeptide WRVYEKC(Dnp)ALK-acid (where Dnp is Dinitrophenyl maleimide) (10-mer)
T1 construct: Purified ERAP1(37-941)-10His (ERAP1); 10His (C)
Text: This peptide has minimal fluorescence as the N-terminal tryptophan residue's fluorescence is quenched by the dinitrophenol (DNP) residue within the peptide. However, as ERAP1 hydrolyses the N-terminal amide bond and tryptophan is released this internal quenching is lost and the reaction is monitored by the increase in tryptophan fluorescence over the course of the assay. For the purposes of this application this assay is referred to as the “1 Omer inhibition assay” and compound potencies are calculated and expressed as 1050 as would be familiar to a person skilled in the art.
Biological Assay 1: ERAP1 Mediated Hydrolysis of an Amide Substrate Measured in a Biochemical System
• 1× Assay buffer (AB): 25 mM Bis-tris propane, 0.05% w/v Hydroxypropylmethylcellulose pH 7.75 made with Optima grade water • Decapeptide WRVYEKC(Dnp)ALK-acid (where Dnp is Dinitrophenyl maleimide) (10-mer) • L-Leucine 7-amido-4-methylcoumarin (L-AMC) • Purified ERAP1(37-941)-10His (ERAP1)
12.5 μL ERAP1 enzyme in 1×AB was combined with 250 nL test compound in DMSO. 12.5 μL of either 240 μM L-AMC in 1×AB or 100 μM 10-mer in 1×AB was added to the reaction and incubated at 23° C. for 1 h. For detection, plates were read at excitation 365 nm and emission 442 nm (L-AMC) or excitation 279 nm and emission 355 nm (10-mer). Compound IC50 was determined using a 4-parameter equation.

T1 sequence (Q9NZ08 37-941): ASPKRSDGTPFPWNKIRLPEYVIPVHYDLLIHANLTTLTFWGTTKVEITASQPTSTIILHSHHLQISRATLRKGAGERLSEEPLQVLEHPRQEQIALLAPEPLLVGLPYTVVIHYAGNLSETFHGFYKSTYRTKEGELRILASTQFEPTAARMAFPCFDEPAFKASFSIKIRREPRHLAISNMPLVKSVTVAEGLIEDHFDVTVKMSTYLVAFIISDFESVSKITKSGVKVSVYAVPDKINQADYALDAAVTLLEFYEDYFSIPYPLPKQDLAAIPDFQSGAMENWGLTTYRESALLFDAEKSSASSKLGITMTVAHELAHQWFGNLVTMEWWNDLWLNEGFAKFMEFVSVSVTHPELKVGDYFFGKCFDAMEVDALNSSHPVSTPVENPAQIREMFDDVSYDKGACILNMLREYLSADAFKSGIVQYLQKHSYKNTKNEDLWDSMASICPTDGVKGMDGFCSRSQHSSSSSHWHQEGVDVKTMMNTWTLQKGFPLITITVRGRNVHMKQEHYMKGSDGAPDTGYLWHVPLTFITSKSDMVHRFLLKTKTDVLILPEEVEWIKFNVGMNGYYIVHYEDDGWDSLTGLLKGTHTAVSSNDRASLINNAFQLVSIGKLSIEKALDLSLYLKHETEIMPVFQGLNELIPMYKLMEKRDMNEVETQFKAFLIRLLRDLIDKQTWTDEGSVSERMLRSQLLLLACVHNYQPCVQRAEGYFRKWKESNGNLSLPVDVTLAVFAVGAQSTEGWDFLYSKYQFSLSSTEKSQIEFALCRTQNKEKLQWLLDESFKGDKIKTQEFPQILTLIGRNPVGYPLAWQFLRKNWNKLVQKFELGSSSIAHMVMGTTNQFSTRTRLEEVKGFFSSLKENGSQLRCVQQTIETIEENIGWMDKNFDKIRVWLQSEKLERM

Row | IC50 | Compound
1 | < 250 nM | N#Cc1cc2c(cc1Cl)N1CCCCC1C/C=C/COc1ccc(C(=O)O)cc1S(=O)(=O)N2 (single isomer, unassigned) [Example 46, (E)-3-chloro-2-cyano-7,8,9,9a,10,13-hexahydro-6H, 20H-dibenzo[b,f]pyrido[1,2-h][1]oxa[4]thia[5,8]diazacyclotridecine-17-carboxylic acid 19,19-dioxide]
2 | 250 to 1000 nM | N#Cc1cc2c(cc1Cl)N1CCCCC1/C=C/COc1ccc(C(=O)O)cc1S(=O)(=O)N2 (single isomer, unassigned) [Example 47, (E)-3-chloro-2-cyano-6,7,8,9,9a,12-hexahydro-19H-dibenzo[b,f]pyrido[1,2-h][1]oxa[4]thia[5,8]diazacyclododecine-16-carboxylic acid 18,18-dioxide]
3 | < 250 nM | N#Cc1cc2c(cc1Cl)N1CCCCC1/C=C/COc1ccc(C(=O)O)cc1S(=O)(=O)N2 (single isomer, unassigned) [Example 48, (E)-3-chloro-2-cyano-6,7,8,9,9a,12-hexahydro-19H-dibenzo[b,f]pyrido[1,2-h][1]oxa[4]thia[5,8]diazacyclododecine-16-carboxylic acid 18,18-dioxide]
4 | < 250 nM | CS(=O)(=O)c1ccc2c(c1)NS(=O)(=O)c1cc(C(=O)O)ccc1OCCCC1CCCCN21 (single isomer, unassigned) [Example 49, 2-(methylsulfonyl)-6,7,8,9,9a,10,11,12-octahydro-19H-dibenzo[b,f]pyrido[1,2-h][1]oxa[4]thia[5,8]diazacyclododecine-16-carboxylic acid 18,18-dioxide]
5 | 250 to 1000 nM | CS(=O)(=O)c1ccc2c(c1)NS(=O)(=O)c1cc(C(=O)O)ccc1OCCCC1CCCCN21 (single isomer, unassigned) [Example 50, 2-(methylsulfonyl)-6,7,8,9,9a,10,11,12-octahydro-19H-dibenzo[b,f]pyrido[1,2-h][1]oxa[4]thia[5,8]diazacyclododecine-16-carboxylic acid 18,18-dioxide]
6 | < 250 nM | N#Cc1cc2c(cc1F)N1CCCCC1CCCCOc1ccc(C(=O)O)cc1S(=O)(=O)N2 (single isomer, unassigned) [Example 55, 2-cyano-3-fluoro-7,8,9,9a,10,11,12,13-octahydro-6H,20H-dibenzo[b,f]pyrido[1,2-h][1]oxa[4]thia[5,8]diazacyclotridecine-17-carboxylic acid 19,19-dioxide]
7 | < 250 nM | N#Cc1cc2c(cc1F)N1CCCCC1CCCCOc1ccc(C(=O)O)cc1S(=O)(=O)N2 (single isomer, unassigned) [Example 56, 2-cyano-3-fluoro-7,8,9,9a,10,11,12,13-octahydro-6H,20H-dibenzo[b,f]pyrido[1,2-h][1]oxa[4]thia[5,8]diazacyclotridecine-17-carboxylic acid 19,19-dioxide]
8 | > 1000 nM | CS(=O)(=O)NC(=O)c1ccc2c(c1)S(=O)(=O)Nc1cc(C#N)c(Cl)cc1N1CCCC[C@H]1/C=C/CO2 (single isomer, unassigned) [Example 58]
9 | > 1000 nM | CS(=O)(=O)NC(=O)c1ccc2c(c1)S(=O)(=O)Nc1cc(C#N)c(Cl)cc1N1CCCCC1C/C=C/CO2 (single isomer, unassigned) [Example 62]
10 | < 250 nM | N#Cc1cc2c(cc1Cl)N1CCCC[C@@H]1COCCOc1ccc(C(=O)O)cc1S(=O)(=O)N2 (single isomer, unassigned) [Example 67]
11 | < 250 nM | N#Cc1cc2c(cc1Cl)N1CCCC[C@H]1COCCOc1ccc(C(=O)O)cc1S(=O)(=O)N2 (single isomer, unassigned) [Example 68]
12 | < 250 nM | N#Cc1ccc2c(c1)NS(=O)(=O)c1cc(C(=O)O)ccc1OCCCC1CCCCN21 (stereo not drawn) [Example 5, 2-cyano-6,7,8,9,9a,10,11,12-octahydro-19H-dibenzo[b,f]pyrido[1,2-h][1]oxa[4]thia[5,8]diazacyclododecine-16-carboxylic acid 18,18-dioxide]
13 | < 250 nM | N#Cc1cc2c(cc1Cl)N1CCCC[C@@H]1CCCCOc1ccc(C(=O)O)cc1S(=O)(=O)N2 [Example 52, (R)-3-chloro-2-cyano-7,8,9,9a,10,11,12,13-octahydro-6H,20H-dibenzo[b,f]pyrido[1,2-h][1]oxa[4]thia[5,8]diazacyclotridecine-17-carboxylic acid 19,19-dioxide]
14 | < 250 nM | N#Cc1cc2c(cc1Cl)N1CCCC[C@H]1CCCCOc1ccc(C(=O)O)cc1S(=O)(=O)N2 [Example 53, (S)-3-chloro-2-cyano-7,8,9,9a,10,11,12,13-octahydro-6H, 20H-dibenzo[b,f]pyrido[1,2-h][1]oxa[4]thia[5,8]diazacyclotridecine-17-carboxylic acid 19,19-dioxide]
15 | < 250 nM | N#Cc1cc2c(cc1F)N1CCCC[C@H]1CCCCOc1ccc(C(=O)O)cc1S(=O)(=O)N2 [Example 57, (S)-2-cyano-3-fluoro-7,8,9,9a,10,11,12,13-octahydro-6H, 20H-dibenzo[b,f]pyrido[1,2-h][1]oxa[4]thia[5,8]diazacyclotridecine-17-carboxylic acid 19,19-dioxide]
16 | < 250 nM | N#Cc1cc2c(cc1Cl)N1CCCC[C@@H]1CCCOc1ccc(C(=O)O)cc1S(=O)(=O)N2 [Example 59, (R)-3-chloro-2-cyano-6,7,8,9,9a,10,11,12-octahydro-19H-dibenzo[b,f]pyrido[1,2-h][1]oxa[4]thia[5,8]diazacyclododecine-16-carboxylic acid 18,18-dioxide]
17 | < 250 nM | N#Cc1cc2c(cc1Cl)N1CCCC[C@H]1C/C=C/COc1ccc(C(=O)O)cc1S(=O)(=O)N2 [Example 61, (S,E)-3-chloro-2-cyano-7,8,9,9a,10,13-hexahydro-6H, 20H-dibenzo[b,f]pyrido[1,2-h][1]oxa[4]thia[5,8]diazacyclotridecine-17-carboxylic acid 19,19-dioxide]
18 | > 1000 nM | CS(=O)(=O)NC(=O)c1ccc2c(c1)S(=O)(=O)Nc1cc(C#N)c(F)cc1N1CCCC[C@H]1CCCCO2 [Example 63, (S)-2-cyano-3-fluoro-N-(methylsulfonyl)-7,8,9,9a,10,11,12,13-octahydro-6H, 20H-dibenzo[b,f]pyrido[1,2-h][1]oxa[4]thia[5,8]diazacyclotridecine-17-carboxamide 19,19-dioxide]
19 | > 1000 nM | CS(=O)(=O)NC(=O)c1ccc2c(c1)S(=O)(=O)Nc1cc(C#N)c(Cl)cc1N1CCCC[C@H]1CCCO2 [Example 64, (S)-3-chloro-2-cyano-N-(methylsulfonyl)-6,7,8,9,9a,10,11,12-octahydro-19H-dibenzo[b,f]pyrido[1,2-h][1]oxa[4]thia[5,8]diazacyclododecine-16-carboxamide 18,18-dioxide]
20 | < 250 nM | N#Cc1cc2c(cc1Cl)N1CCCC[C@H]1COCCOc1ccc(C(=O)O)cc1S(=O)(=O)N2 [Example 69, (S)-3-chloro-2-cyano-6,7,8,9,9a,10,12,13-octahydro-20H-dibenzo[e,i]pyrido[1,2-k][1,4]dioxa[7]thia[8,11]diazacyclotridecine-17-carboxylic acid 19,19-dioxide]

Row | Compound | IC50
21 | N#Cc1cc2c(cc1Cl)N1CCCC[C@H]1CCCOc1ccc(C(=O)O)cc1S(=O)(=O)N2 [Example 60, (S)-3-chloro-2-cyano-6,7,8,9,9a,10,11,12-octahydro-19H-dibenzo[b,f]pyrido[1,2-h][1]oxa[4]thia[5,8]diazacyclododecine-16-carboxylic acid 18,18-dioxide] | < 250 nM
